Assay [1] has as its target PIK3CA (human) (UniProt P42336). The experiment in a line: Enzyme Assay.
For a further assay, the target named is PIK3CG (human) (UniProt P48736). The assay can be described thus: Enzyme Assay.
For the next assay, the target named is PIK3CB (Human) (UniProt P42338). The experiment in a line: Enzyme Assay.
The target in assay [2] is PIK3CA (human) (UniProt P42336). The experiment in a line: Cell-Based Assay.
Another assay deals with PIK3CD (Human) (UniProt O00329). The experiment in a line: Enzyme Assay.
Chain of PIK3CD (Human) (O00329 whole entry, looked up): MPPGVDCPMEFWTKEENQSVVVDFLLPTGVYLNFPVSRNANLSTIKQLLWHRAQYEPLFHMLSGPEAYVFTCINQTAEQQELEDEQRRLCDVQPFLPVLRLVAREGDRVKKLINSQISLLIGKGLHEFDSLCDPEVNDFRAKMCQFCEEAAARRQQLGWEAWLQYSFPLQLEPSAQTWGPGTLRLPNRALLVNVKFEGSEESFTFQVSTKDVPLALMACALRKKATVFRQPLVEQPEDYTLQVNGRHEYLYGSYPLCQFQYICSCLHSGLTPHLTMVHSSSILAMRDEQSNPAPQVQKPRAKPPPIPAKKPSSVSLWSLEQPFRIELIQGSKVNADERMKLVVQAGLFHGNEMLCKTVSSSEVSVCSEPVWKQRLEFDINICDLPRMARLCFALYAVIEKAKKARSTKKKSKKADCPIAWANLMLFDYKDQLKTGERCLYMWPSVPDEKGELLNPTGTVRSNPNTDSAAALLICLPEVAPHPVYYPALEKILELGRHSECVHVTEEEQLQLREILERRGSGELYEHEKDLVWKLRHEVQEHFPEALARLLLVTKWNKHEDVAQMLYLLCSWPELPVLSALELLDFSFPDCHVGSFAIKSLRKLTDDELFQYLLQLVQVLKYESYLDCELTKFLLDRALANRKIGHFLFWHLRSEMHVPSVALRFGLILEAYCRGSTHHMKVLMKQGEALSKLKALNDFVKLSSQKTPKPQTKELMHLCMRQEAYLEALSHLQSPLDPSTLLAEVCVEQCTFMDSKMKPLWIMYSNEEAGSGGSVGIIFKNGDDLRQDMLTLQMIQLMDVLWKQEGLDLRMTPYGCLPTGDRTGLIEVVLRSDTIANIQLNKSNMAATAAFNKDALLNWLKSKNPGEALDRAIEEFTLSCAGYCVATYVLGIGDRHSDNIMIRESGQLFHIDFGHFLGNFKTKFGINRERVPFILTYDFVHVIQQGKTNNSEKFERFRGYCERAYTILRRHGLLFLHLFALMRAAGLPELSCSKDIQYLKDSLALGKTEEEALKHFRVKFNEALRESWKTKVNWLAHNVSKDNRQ

Chain of PIK3CB (Human) (P42338 whole entry, looked up): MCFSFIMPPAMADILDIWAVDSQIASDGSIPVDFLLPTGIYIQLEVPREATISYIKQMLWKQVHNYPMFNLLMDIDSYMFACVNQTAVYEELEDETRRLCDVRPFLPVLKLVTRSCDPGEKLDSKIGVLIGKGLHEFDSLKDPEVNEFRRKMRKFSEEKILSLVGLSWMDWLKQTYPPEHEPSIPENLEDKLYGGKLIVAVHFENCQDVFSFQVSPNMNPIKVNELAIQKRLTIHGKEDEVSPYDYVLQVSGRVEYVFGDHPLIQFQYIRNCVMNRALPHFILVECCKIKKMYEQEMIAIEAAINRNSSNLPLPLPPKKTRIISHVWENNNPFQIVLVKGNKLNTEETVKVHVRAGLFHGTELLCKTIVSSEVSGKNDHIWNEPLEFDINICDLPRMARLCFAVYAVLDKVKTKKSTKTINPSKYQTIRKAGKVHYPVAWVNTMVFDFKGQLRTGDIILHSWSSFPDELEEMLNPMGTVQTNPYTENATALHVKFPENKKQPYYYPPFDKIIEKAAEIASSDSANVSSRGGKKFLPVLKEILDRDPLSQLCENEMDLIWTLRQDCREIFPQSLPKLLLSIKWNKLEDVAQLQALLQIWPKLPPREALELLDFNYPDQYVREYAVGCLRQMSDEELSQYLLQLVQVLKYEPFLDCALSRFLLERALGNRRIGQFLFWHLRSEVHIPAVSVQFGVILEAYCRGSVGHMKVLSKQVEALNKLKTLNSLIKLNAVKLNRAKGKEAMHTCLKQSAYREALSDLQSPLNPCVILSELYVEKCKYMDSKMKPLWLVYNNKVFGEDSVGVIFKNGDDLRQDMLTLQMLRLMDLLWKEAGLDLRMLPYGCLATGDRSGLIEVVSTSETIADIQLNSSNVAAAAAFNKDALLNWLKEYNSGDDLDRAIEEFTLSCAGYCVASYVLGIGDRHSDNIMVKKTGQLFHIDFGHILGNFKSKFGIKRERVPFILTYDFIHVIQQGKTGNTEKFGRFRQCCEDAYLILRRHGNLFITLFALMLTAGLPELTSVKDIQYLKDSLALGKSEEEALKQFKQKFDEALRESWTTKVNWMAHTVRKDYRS
Chain of PIK3CG (human) (P48736 whole entry, looked up): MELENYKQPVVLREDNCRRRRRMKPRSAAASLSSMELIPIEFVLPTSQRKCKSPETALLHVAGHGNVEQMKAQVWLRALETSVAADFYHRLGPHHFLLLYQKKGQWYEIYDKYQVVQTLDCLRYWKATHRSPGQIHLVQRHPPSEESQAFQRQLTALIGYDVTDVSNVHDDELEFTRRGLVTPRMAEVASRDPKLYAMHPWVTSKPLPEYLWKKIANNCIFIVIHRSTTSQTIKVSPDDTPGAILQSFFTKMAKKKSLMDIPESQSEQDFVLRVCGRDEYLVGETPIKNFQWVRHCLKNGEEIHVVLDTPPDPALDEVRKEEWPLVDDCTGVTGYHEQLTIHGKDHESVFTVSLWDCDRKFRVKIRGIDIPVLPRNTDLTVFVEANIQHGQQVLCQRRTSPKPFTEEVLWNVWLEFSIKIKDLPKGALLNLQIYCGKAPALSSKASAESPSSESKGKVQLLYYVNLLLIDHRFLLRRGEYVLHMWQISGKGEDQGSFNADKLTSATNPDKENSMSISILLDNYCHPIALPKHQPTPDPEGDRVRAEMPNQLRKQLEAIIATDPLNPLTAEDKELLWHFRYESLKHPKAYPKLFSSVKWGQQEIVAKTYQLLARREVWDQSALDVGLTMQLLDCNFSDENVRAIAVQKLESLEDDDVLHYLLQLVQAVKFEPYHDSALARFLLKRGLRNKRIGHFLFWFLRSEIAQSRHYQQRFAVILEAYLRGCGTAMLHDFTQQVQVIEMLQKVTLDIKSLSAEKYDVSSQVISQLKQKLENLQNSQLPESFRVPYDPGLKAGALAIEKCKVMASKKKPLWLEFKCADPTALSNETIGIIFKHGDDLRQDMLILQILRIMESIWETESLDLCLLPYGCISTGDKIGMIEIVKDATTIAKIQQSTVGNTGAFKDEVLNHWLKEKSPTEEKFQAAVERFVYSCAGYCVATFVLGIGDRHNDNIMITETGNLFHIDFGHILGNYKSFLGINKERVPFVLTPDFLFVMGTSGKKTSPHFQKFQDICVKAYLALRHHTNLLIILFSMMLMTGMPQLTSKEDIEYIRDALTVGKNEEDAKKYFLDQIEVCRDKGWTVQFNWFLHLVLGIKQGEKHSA
Chain of PIK3CA (human) (P42336 whole entry, looked up): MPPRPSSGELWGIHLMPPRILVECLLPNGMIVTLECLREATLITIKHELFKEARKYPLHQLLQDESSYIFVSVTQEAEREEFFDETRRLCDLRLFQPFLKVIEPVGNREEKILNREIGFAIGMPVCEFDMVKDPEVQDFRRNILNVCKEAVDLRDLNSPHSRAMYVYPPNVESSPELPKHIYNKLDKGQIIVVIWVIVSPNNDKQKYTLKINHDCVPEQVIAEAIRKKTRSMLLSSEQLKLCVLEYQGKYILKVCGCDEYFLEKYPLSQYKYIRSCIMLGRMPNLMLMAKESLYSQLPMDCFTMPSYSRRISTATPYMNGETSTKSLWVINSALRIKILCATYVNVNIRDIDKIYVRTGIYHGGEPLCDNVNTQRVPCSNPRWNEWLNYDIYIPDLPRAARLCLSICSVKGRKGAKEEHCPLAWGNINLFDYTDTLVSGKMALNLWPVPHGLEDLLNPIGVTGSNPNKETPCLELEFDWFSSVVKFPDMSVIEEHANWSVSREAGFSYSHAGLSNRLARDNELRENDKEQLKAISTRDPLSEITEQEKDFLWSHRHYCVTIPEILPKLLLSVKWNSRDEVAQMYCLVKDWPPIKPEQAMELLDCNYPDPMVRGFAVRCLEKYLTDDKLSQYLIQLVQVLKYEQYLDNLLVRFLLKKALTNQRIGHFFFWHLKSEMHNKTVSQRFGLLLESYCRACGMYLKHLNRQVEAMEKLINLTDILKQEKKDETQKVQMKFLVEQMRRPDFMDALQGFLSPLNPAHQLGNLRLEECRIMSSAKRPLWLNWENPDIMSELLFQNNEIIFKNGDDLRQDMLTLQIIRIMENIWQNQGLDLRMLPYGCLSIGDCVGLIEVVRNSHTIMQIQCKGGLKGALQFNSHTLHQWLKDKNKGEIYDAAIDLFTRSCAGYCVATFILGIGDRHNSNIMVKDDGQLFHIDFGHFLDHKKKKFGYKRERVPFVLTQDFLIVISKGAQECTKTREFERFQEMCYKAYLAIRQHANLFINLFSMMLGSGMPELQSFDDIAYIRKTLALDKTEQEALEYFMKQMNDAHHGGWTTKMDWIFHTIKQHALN

The IC50 is the concentration that gives 50% inhibition. For the compound `Nc1nc2cc(-c3ccc4ncc(-c5ccncc5)n4n3)ccc2o1`, the concentration for half-maximal inhibition (IC50) is less than 100 nM against PIK3CA (human) [1]; less than 100 nM against PIK3CG (human); 100 to 1000 nM on PIK3CB (Human); 100 to 1000 nM against PIK3CA (human) [2] (pc3); 100 to 1000 nM against PIK3CA (human) [2] (t47d).
For `Nc1nc2cc(-c3ccc4ncc(S(=O)(=O)N5CCOCC5)n4c3)ccc2o1`, the IC50 at PIK3CA (human) [1], against PIK3CG (human), on PIK3CB (Human) and at PIK3CD (Human) was more than 10000 nM throughout.
In the case of `Nc1nc2ccc(-c3ccc4nccc(-c5ccncc5)c4c3)cc2o1`, the IC50 against PIK3CA (human) [1], at PIK3CG (human), at PIK3CB (Human), on PIK3CD (Human) and on PIK3CA (human) [2] (pc3) was less than 100 nM each time.
For the compound `Nc1nc2cc(-c3ccc4ncc(NCCN5CCOCC5)nc4c3)ccc2o1`, the IC50 on PIK3CA (human) [1] is less than 100 nM; at PIK3CG (human) it was 100 to 1000 nM; at PIK3CB (Human), 100 to 1000 nM; at PIK3CD (Human), 100 to 1000 nM.
`CC(=O)Nc1cc2ccc(-c3cc(F)c4oc(N)nc4c3)cn2n1`: the IC50 against PIK3CA (human) [1], on PIK3CB (Human) and at PIK3CD (Human) was more than 10000 nM each time.
With `NC(=O)[C@H]1CCCN1c1cnc2ccc(-c3ccc4oc(N)nc4c3)cc2n1`, the IC50 at PIK3CA (human) [1] is less than 100 nM; at PIK3CG (human) it was less than 100 nM; against PIK3CB (Human), less than 100 nM; at PIK3CD (Human) it was more than 10000 nM; against PIK3CA (human) [2] (t47d), 100 to 1000 nM.
In the case of `C[C@H]1CN(c2cnc3ccc(-c4ccc5oc(N)nc5c4)cc3c2)CCN1`, the IC50 on PIK3CA (human) [1] is less than 100 nM; at PIK3CB (Human), less than 100 nM; against PIK3CD (Human) it was more than 10000 nM.
As to `Nc1nc2cc(-c3ccc4ncc(-c5cn[nH]c5)n4n3)ccc2o1`, the half-maximal inhibitory concentration (IC50) against PIK3CA (human) [1] was less than 100 nM; against PIK3CG (human) it was less than 100 nM; against PIK3CB (Human), less than 100 nM; against PIK3CD (Human) it was 100 to 1000 nM.
With `CN1CCN(n2cnc3ccc(-c4ccc5oc(N)nc5c4)cc3c2=O)CC1`, the IC50 is 100 to 1000 nM on PIK3CA (human) [1], more than 10000 nM at PIK3CG (human), more than 10000 nM at PIK3CB (Human) and more than 10000 nM against PIK3CD (Human).
As for `CC(=O)Nc1nc2ccc(-c3ccc4oc(N)nc4c3)cc2s1`, the IC50 was less than 100 nM against PIK3CA (human) [1]; less than 100 nM at PIK3CG (human); 100 to 1000 nM on PIK3CB (Human); less than 100 nM against PIK3CD (Human); 100 to 1000 nM on PIK3CA (human) [2] (t47d).
`CNc1nsc2cc(-c3ccc4ncc(C(=O)N5CCOCC5)n4c3)ccc12`: the IC50 on PIK3CA (human) [1], at PIK3CG (human), against PIK3CB (Human) and against PIK3CD (Human) was more than 10000 nM each time.
For the compound `CN1CCN(S(=O)(=O)c2cnc3ccc(-c4ccc5oc(N)nc5c4)cn23)CC1`, the IC50 against PIK3CA (human) [1], on PIK3CG (human), against PIK3CB (Human) and against PIK3CD (Human) was more than 10000 nM each time.
Turning to `CC1CN(C(=O)c2cnc3ccc(-c4ccc5oc(N)nc5c4)cn23)CCN1` (centres undefined), the 50% inhibitory concentration (IC50) on PIK3CA (human) [1] was 100 to 1000 nM; against PIK3CG (human), more than 10000 nM; on PIK3CB (Human), 100 to 1000 nM; at PIK3CD (Human), more than 10000 nM.
In the case of `Nc1nc2cc(-c3ccc4ncc(-c5ccncc5)n4c3)ccc2o1`, the concentration for half-maximal inhibition (IC50) against PIK3CA (human) [1] was less than 100 nM; at PIK3CG (human) it was less than 100 nM; at PIK3CD (Human), 100 to 1000 nM; on PIK3CA (human) [2] (t47d), 100 to 1000 nM.
Regarding `CN(C)CC(=O)N1CCN(c2cnc3ccc(-c4ccc5oc(N)nc5c4)cc3n2)CC1`, the IC50 against PIK3CA (human) [1] was less than 100 nM; against PIK3CG (human), 100 to 1000 nM; at PIK3CB (Human) it was 100 to 1000 nM; against PIK3CD (Human) it was 100 to 1000 nM; at PIK3CA (human) [2] (t47d), 100 to 1000 nM.
On to `Nc1nc2cc(-c3ccc4ncc(C(=O)N5CCC(N6CCC(F)(F)C6)C5)n4c3)ccc2o1` (centres undefined), for which the results for the concentration for half-maximal inhibition (IC50) on PIK3CA (human) [1] and against PIK3CB (Human) were 100 to 1000 nM and more than 10000 nM, respectively.
Take `Nc1nc2ccc(-c3ccc4nccc(-c5ccncc5)c4c3)cc2s1`: the IC50 on PIK3CA (human) [1] was less than 100 nM; against PIK3CG (human), 100 to 1000 nM; at PIK3CB (Human) it was more than 10000 nM; against PIK3CD (Human), 100 to 1000 nM.

The values are drawn from the Kinase Knowledgebase extract (Sharma et al. 2016).
